In paper PMC5046737, “Target and Non-target Site Mechanisms Developed by Glyphosate-Resistant Hairy beggarticks (Bidens pilosa L.) Populations from Mexico” (Frontiers in Plant Science, 2016):

Legend:
[1] = tested on: T1, EPSPS of the resistant R2 population (EPSPS1 and EPSPS2); assay: EPSPS activity in leaf extract, continuous phosphate release (EnzChek); type: biochemical, Bidens pilosa; conditions: raw leaf extract, mixed isozymes; no EPSPS mutation found in this resistant population; read-out: I50
T1 construct: native enzyme in raw leaf extract; isozyme mix unknown

[2] = tested on: T2, EPSPS of the susceptible (S) population (EPSPS1 and EPSPS2); assay: as above; type: biochemical, Bidens pilosa; conditions: raw leaf extract, mixed isozymes; 10 min at 360 nm; glyphosate 0-10000 μM; text prints 0.95 μM; read-out: I50
T2 construct: native enzyme in raw leaf extract; both isozymes expressed
From the text: EPSPS activity in leaf extract, continuous phosphate release (EnzChek) on EPSPS of the susceptible (S) population (EPSPS1 and EPSPS2)

[3] = tested on: EPSPS of the resistant R1 population (EPSPS1 and EPSPS2, mixed alleles); conditions: read-out: I50; raw leaf extract, mixed isozymes and alleles (wild type, P106S, T102I/P106S); stated gain
From the text: EPSPS activity in leaf extract, continuous phosphate release (EnzChek) on EPSPS of the resistant R1 population (EPSPS1 and EPSPS2, mixed alleles)

O=C(O)CNCP(=O)(O)O [glyphosate]
IC50 [1]: 8.2 ± 1.1 µM | IC50 [2]: 0.96 µM | IC50 [3]: 123 ± 2.1 µM
